Test results as given in US20230233569A1 (Revolution Medicines, Inc., priority 2020, published 2023).
Like-named read-outs stand apart in the source and are kept apart here.

Assays:
Capan-1 (K-Ras G12V) = test: CellTiter-Glo cell viability assay, 5-day treatment; format: cell-based; conditions: Homo sapiens, CAPAN-1, 120 h, 5-day treatment; read-out: Capan-1 Cell Viability assay data (K-Ras G12V, IC50)
Summary of the method: (§1)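 Luminescence read-out after 5 days of compound exposure, with plates first brought to room temperature for roughly 30 minutes. Values are percent of averaged DMSO wells, fitted by four-parameter logistic regression.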

NCI-H358 (K-Ras G12C) = test: as above; format: cell-based; conditions: Homo sapiens, NCI-H358, 120 h, 5-day treatment; read-out: H358 Cell Viability assay data (K-Ras G12C, IC50)
Summary of the method: as §1

KRAS G12C = KRAS G12C (Homo sapiens, UniProt P01116+P62937, G12C); test: Disruption of BRAF RBD interaction with Ras (FRET / MOA assay, with Cyclophilin A); format: biochemical
Summary of the method: (§2)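 TR-FRET: nucleotide-loaded K-Ras mutant or WT with Cyclophilin A and BRAF RBD, compound 10-point 3-fold from 30 μM final, 3 h at 25° C, then anti-His Eu (10 nM) and anti-GST APC (50 nM) for 1.5 h. Decreased FRET ratio versus DMSO gives IC50.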

KRAS G12D = KRAS G12D (Homo sapiens, UniProt P01116+P62937, G12D); test: as above; format: biochemical
Summary of the method: as §2

KRAS G12S = KRAS G12S (Homo sapiens, UniProt P01116+P62937, G12S); test: as above; format: biochemical
Summary of the method: as §2

KRAS G12V = KRAS G12V (Homo sapiens, UniProt P01116+P62937, G12V); test: as above; format: biochemical
Summary of the method: as §2

KRAS G13C = KRAS G13C (Homo sapiens, UniProt P01116+P62937, G13C); test: as above; format: biochemical
Summary of the method: as §2

KRAS G13D = KRAS G13D (Homo sapiens, UniProt P01116+P62937, G13D); test: as above; format: biochemical
Summary of the method: as §2

KRAS WT = KRAS WT (Homo sapiens, UniProt P01116+P62937); test: as above; format: biochemical
Summary of the method: as §2

NRAS G12C = NRAS G12C (Homo sapiens, UniProt P01111+P62937, G12C); test: as above; format: biochemical
[1] = read-out: KRAS G12C FRET data, IC50
[2] = read-out: KRAS G12D FRET data, IC50
[3] = read-out: KRAS G12S FRET data, IC50
[4] = KRAS G12V, read-out: KRAS G12V FRET data IC50
[5] = read-out: KRAS G13C FRET data, IC50
[6] = KRAS G13D, read-out: KRAS G13D FRET data IC50
[7] = KRAS WT, read-out: KRAS WT FRET data IC50
[8] = NRAS G12C, read-out: NRAS G12C FRET data IC50
[9] = KRAS G12V FRET data IC50, KRAS G12V
[10] = KRAS G13D FRET data IC50, KRAS G13D
[11] = KRAS WT FRET data IC50, KRAS WT
[12] = NRAS G12C FRET data IC50, NRAS G12C

NRAS G12C, sequence (P01111 whole entry G12C): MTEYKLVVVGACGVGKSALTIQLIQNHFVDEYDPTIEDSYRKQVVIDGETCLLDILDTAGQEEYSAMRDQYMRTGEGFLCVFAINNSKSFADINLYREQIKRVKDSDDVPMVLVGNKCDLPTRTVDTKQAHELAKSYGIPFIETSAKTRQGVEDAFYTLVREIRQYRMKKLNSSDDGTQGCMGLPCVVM
NRAS G12C, sequence (P62937 whole entry): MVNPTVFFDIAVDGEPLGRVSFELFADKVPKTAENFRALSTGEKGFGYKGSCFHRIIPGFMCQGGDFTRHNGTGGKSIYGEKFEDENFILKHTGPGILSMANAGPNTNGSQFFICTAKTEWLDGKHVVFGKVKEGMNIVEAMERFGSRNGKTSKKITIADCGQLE
KRAS WT, sequence (P01116 1-169 isoform P01116-2 limits assumed): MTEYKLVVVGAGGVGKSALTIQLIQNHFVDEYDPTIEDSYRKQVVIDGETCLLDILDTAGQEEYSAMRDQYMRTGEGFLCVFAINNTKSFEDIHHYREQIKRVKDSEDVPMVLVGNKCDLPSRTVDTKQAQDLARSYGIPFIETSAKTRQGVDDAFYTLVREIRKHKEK
KRAS WT, sequence (P62937 whole entry): as the sequence (P62937 whole entry) above
KRAS G12S, sequence (P01116 1-169 isoform P01116-2 G12S limits assumed): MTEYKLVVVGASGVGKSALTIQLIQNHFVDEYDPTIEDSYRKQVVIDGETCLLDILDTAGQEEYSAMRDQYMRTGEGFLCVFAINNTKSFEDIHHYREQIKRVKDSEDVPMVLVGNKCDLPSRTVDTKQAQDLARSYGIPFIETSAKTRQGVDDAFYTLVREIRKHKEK
KRAS G12S, sequence (P62937 whole entry): as the sequence (P62937 whole entry) above
KRAS G12C, sequence (P01116 1-169 isoform P01116-2 G12C): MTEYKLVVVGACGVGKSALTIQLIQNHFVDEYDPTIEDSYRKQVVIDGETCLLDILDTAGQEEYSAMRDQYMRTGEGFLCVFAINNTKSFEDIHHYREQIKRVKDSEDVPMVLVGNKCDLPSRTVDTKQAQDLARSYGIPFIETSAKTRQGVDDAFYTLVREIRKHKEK
KRAS G12C, sequence (P62937 whole entry): as the sequence (P62937 whole entry) above
KRAS G12D, sequence (P01116 1-169 isoform P01116-2 G12D limits assumed): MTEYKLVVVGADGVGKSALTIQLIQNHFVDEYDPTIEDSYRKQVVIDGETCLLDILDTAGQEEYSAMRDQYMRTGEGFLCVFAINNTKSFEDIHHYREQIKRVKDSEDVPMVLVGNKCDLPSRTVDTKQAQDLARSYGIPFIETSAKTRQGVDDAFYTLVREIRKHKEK
KRAS G12D, sequence (P62937 whole entry): as the sequence (P62937 whole entry) above
KRAS G12V, sequence (P01116 1-169 isoform P01116-2 G12V limits assumed): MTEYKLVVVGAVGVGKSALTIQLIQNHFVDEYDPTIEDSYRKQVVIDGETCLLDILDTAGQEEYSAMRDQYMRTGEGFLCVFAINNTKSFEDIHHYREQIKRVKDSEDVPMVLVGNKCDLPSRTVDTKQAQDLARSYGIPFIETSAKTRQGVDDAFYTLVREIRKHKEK
KRAS G12V, sequence (P62937 whole entry): as the sequence (P62937 whole entry) above
KRAS G13C, sequence (P01116 1-169 isoform P01116-2 G13C): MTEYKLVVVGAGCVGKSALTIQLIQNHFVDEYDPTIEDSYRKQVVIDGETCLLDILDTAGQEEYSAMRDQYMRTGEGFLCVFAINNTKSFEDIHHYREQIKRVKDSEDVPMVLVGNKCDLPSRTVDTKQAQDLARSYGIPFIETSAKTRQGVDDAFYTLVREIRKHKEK
KRAS G13C, sequence (P62937 whole entry): as the sequence (P62937 whole entry) above
KRAS G13D, sequence (P01116 1-169 isoform P01116-2 G13D limits assumed): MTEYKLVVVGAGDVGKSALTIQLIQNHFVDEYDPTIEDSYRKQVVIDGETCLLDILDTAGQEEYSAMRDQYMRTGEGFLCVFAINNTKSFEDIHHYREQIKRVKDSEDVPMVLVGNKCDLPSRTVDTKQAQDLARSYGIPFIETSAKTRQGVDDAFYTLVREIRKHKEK
KRAS G13D, sequence (P62937 whole entry): as the sequence (P62937 whole entry) above

| IC50 (NCI-H358 (K-Ras G12C)) [nM] | IC50 (KRAS G12C; [1]) [nM] | IC50 (KRAS G12D; [2]) [nM] | IC50 (KRAS G12S; [3]) [nM] | IC50 (KRAS G12V; [4]) [nM] | IC50 (KRAS G13C; [5]) [nM] | IC50 (KRAS G13D; [6]) [nM] | IC50 (KRAS WT; [7]) [nM] | IC50 (NRAS G12C; [8]) [nM] | Structure (SMILES) | IC50 (Capan-1 (K-Ras G12V)) [nM] | IC50 (KRAS G12C; KRAS G12C FRET data, IC50) [nM] | IC50 (KRAS G12D; KRAS G12D FRET data, IC50) [nM] | IC50 (KRAS G12S; KRAS G12S FRET data, IC50) [nM] | IC50 (KRAS G12V; [9]) [nM] | IC50 (KRAS G13C; KRAS G13C FRET data, IC50) [nM] | IC50 (KRAS G13D; [10]) [nM] | IC50 (KRAS WT; [11]) [nM] | IC50 (NRAS G12C; [12]) [nM] |
| --- | --- | --- | --- | --- | --- | --- | --- | --- | --- | --- | --- | --- | --- | --- | --- | --- | --- | --- |
| 10 to 100 | 10 to 100 | 100 to 1000 | 10 to 100 | 10 to 100 | 10 to 100 | 10 to 100 | 10 to 100 | 10 to 100 | CCn1c(-c2cccnc2[C@H](C)OC)c2c3cc(ccc31)-c1cc(O)cc(c1)C[C@H](NC(=O)[C@H](C(C)C)N(C)C(=O)[C@H]1CCN(C(=O)C(C)(C)N(C)C)C1)C(=O)N1CCC[C@H](N1)C(=O)OCC(C)(C)C2 (atropisomer, axis not shown) [Example A114] | 10 to 100 |  |  |  |  |  |  |  |  |
| 1000 to 10000 | 10 to 100 | 10 to 100 | 10 to 100 | 100 to 1000 | 100 to 1000 | 100 to 1000 | 100 to 1000 | 10 to 100 | CCn1c(-c2cccnc2[C@H](C)OC)c2c3cc(ccc31)-c1cc(O)cc(c1)C[C@H](NC(=O)[C@H](C(C)C)N(C)C(=O)[C@H]1CCN(C(=O)CNC)C1)C(=O)N1CCC[C@H](N1)C(=O)OCC(C)(C)C2 (atropisomer, axis not shown) [Example A120] | > 10000 |  |  |  |  |  |  |  |  |
| 100 to 1000 |  |  |  |  |  |  |  |  | CCn1c(-c2cccnc2[C@H](C)OC)c2c3cc(ccc31)-c1cc(O)cc(c1)C[C@H](NC(=O)[C@H](C(C)C)N(C)C(=O)[C@H]1C[C@@H](O)C1)C(=O)N1CCC[C@H](N1)C(=O)OCC(C)(C)C2 (atropisomer, axis not shown) [Example A121] | 100 to 1000 | 10 to 100 | 100 to 1000 | 10 to 100 | 10 to 100 | 10 to 100 | 10 to 100 | 10 to 100 | 10 to 100 |
| 10 to 100 | 10 to 100 | 10 to 100 | 10 to 100 | 100 to 1000 | 10 to 100 | 10 to 100 | 10 to 100 | 10 to 100 | CCn1c(-c2cccnc2[C@H](C)OC)c2c3cc(ccc31)-c1cc(O)cc(c1)C[C@H](NC(=O)[C@H](C(C)C)N(C)C(=O)[C@H]1CCC[C@H]1N)C(=O)N1CCC[C@H](N1)C(=O)OCC(C)(C)C2 (atropisomer, axis not shown) [Example A131] | 100 to 1000 |  |  |  |  |  |  |  |  |
| 100 to 1000 | 10 to 100 | 100 to 1000 | 100 to 1000 | 100 to 1000 | 10 to 100 | 100 to 1000 | 100 to 1000 | 100 to 1000 | CCn1c(-c2cccnc2[C@H](C)OC)c2c3cc(ccc31)-c1cc(O)cc(c1)C[C@H](NC(=O)[C@H](C(C)C)N(C)C(=O)C1(O)CC1)C(=O)N1CCC[C@H](N1)C(=O)OCC(C)(C)C2 (atropisomer, axis not shown) [Example A132] | 10 to 100 |  |  |  |  |  |  |  |  |
| 1000 to 10000 | 10 to 100 | 10 to 100 | 10 to 100 | 10 to 100 | 10 to 100 | 10 to 100 | 10 to 100 | 10 to 100 | CCn1c(-c2cccnc2[C@H](C)OC)c2c3cc(ccc31)-c1cc(O)cc(c1)C[C@H](NC(=O)[C@H](C(C)C)N(C)C(=O)[C@H]1CCN(C(=O)CN)C1)C(=O)N1CCC[C@H](N1)C(=O)OCC(C)(C)C2 [Example A1] | 1000 to 10000 |  |  |  |  |  |  |  |  |

| Structure (SMILES) | IC50 (NCI-H358 (K-Ras G12C)) [nM] | IC50 (KRAS G12C; [1]) [nM] | IC50 (KRAS G12D; [2]) [nM] | IC50 (KRAS G12S; [3]) [nM] | IC50 (KRAS G12V; [4]) [nM] | IC50 (KRAS G13C; [5]) [nM] | IC50 (KRAS G13D; [6]) [nM] | IC50 (KRAS WT; [7]) [nM] | IC50 (NRAS G12C; [8]) [nM] | IC50 (Capan-1 (K-Ras G12V)) [nM] | IC50 (KRAS G12C; KRAS G12C FRET data, IC50) [nM] | IC50 (KRAS G12D; KRAS G12D FRET data, IC50) [nM] | IC50 (KRAS G12S; KRAS G12S FRET data, IC50) [nM] | IC50 (KRAS G12V; [9]) [nM] | IC50 (KRAS G13C; KRAS G13C FRET data, IC50) [nM] | IC50 (KRAS G13D; [10]) [nM] | IC50 (KRAS WT; [11]) [nM] | IC50 (NRAS G12C; [12]) [nM] |
| --- | --- | --- | --- | --- | --- | --- | --- | --- | --- | --- | --- | --- | --- | --- | --- | --- | --- | --- |
| CCn1c(-c2cnccc2COC)c2c3cc(ccc31)-c1cc(O)cc(c1)C[C@H](NC(=O)[C@H](C(C)C)N(C)C(=O)[C@H]1CCN(C(=O)OC)C1)C(=O)N1CCC[C@H](N1)C(=O)OCC(C)(C)C2 [Example A11, methyl (3S)-3-{[(1S)-1-{[(8S,14S)-22-ethyl-4-hydroxy-21-[4-(methoxymethyl)pyridin-3-yl]-18,18-dimethyl-9,15-dioxo-16-oxa-10,22,28-triazapentacyclo[18.5.2.1^2,6.1^10,14.0^23,27]nonacosa-1(26),2,4,6(29),20,23(27),24-heptaen-8-yl]carbamoyl}-2-methylpropyl](methyl)carbamoyl}pyrrolidine-1-carboxylate] | 100 to 1000 |  |  |  |  |  |  |  |  | 100 to 1000 | 10 to 100 | 1000 to 10000 | 100 to 1000 | 10 to 100 | 100 to 1000 | 100 to 1000 | 100 to 1000 | 10 to 100 |
